Measurements published in patent publication US20230116703A1, “NOVEL ERGOLINES AND METHODS OF TREATING MOOD DISORDERS” (priority 2021, published 2023).

Experiments:
5-HT2A receptor [1] = biological target: T1, 5-HT2A receptor (Homo sapiens, UniProt P28223); experiment: biochemical; type: binding; conditions: 1 nM [^3H]ketanserin, HEK293 stable cell line; read-out: 5-HT2A Receptor Ki (nM) ([^3H]ketanserin)
T1 construct: host or cells: HEK293
Outline: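 Test compounds competed with [^3H]ketanserin for receptor binding, and affinity was derived from the radioligand displacement.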

5-HT2A receptor [2] = biological target: T1, 5-HT2A receptor; experiment: cell-based; type: cell-based; conditions: Ca^2+ flux, agonist; read-out: 5-HT2A EC50
5-HT1A receptor = biological target: T2, 5-HT1A receptor (Homo sapiens, UniProt P08908); experiment: cell-based; conditions: Ca^2+ flux, agonist; read-out: 5-HT1A EC50
T2 construct: host or cells: CHO cells
T2 sequence (P08908 1-422): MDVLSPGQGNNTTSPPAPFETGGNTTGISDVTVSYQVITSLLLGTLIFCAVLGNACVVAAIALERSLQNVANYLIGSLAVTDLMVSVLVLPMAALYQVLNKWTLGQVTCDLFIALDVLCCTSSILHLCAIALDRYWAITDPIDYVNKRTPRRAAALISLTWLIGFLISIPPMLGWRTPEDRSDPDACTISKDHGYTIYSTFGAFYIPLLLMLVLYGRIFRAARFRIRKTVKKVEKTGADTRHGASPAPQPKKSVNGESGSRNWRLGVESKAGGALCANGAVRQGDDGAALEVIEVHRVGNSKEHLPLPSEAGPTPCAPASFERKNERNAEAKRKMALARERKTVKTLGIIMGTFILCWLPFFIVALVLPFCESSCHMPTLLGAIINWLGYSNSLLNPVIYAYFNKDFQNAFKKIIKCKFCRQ

5-HT2B receptor = biological target: T3, 5-HT2B receptor (Homo sapiens, UniProt P41595); experiment: cell-based; conditions: Ca^2+ flux, agonist; read-out: 5-HT2B EC50
T3 construct: host or cells: HEK293
T3 sequence (P41595 whole entry): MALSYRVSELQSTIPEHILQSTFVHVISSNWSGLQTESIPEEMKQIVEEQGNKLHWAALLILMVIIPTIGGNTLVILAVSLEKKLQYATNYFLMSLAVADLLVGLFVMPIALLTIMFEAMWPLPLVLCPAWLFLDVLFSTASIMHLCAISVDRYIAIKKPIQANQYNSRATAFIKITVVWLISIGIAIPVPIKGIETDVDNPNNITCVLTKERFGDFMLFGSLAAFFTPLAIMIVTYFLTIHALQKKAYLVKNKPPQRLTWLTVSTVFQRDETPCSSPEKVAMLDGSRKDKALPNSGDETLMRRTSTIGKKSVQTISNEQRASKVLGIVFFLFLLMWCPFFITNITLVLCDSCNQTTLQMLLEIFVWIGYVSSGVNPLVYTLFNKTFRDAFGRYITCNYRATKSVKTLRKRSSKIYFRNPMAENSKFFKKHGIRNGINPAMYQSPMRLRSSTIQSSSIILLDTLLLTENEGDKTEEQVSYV

5-HT1B receptor = 5-HT1B receptor (Homo sapiens, UniProt P28222); experiment: cAMP accumulation agonist assay at 5-HT1B; type: cell-based; conditions: cAMP, agonist; read-out: 5-HT1B EC50
Sequence of 5-HT1B receptor (P28222 whole entry): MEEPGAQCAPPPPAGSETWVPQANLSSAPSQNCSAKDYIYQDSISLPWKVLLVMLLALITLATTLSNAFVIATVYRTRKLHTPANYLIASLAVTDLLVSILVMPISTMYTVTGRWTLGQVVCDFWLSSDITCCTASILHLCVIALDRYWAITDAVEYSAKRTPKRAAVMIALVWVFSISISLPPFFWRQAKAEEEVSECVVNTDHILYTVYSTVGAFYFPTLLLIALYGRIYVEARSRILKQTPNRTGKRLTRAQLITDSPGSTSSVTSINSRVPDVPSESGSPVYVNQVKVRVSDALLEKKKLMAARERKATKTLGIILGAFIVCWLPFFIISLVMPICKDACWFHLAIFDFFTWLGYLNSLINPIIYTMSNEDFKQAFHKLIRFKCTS
Outline: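 Agonism was measured by cAMP accumulation in stably transfected cells incubated 60 min at RT. A detection reagent was then added for 60 min at RT before reading, with an 800 nM cAMP standard in blank wells.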

Alpha1A receptor = biological target: T4, Alpha1A receptor (Homo sapiens, UniProt P35348); experiment: FLIPR Ca^2+ flux agonist assay at Alpha1A; type: cell-based
T4 sequence (P35348 1-466): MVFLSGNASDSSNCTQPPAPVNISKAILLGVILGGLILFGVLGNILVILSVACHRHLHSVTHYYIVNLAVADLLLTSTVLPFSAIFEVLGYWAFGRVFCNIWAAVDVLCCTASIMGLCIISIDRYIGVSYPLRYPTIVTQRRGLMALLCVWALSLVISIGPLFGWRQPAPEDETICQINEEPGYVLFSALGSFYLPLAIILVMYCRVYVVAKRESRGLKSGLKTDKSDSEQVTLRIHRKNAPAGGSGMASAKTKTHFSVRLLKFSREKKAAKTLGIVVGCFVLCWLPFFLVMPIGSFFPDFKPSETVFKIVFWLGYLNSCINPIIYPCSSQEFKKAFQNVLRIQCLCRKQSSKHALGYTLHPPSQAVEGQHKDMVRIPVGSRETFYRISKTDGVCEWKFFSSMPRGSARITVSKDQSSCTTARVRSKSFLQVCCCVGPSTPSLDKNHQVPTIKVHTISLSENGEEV
Procedure: Disclosed compounds were tested for agonist activity at several adrenergic (Alpha1A and Alpha2A) and dopamine (D1 and D2) receptor subtypes using Ca^2+ flux functional assays, with the results summarized in Table 6. Selectivity for the 5-HT2A receptor over these other targets varied depending on the specific target and compound.
(§1) Functional Assays at Adrenergic and Dopamine Receptors. Agonist activity at Alpha1A, Alpha2A, D1, and D2 receptors was determined using a FLIPR Ca^2+ flux assay at WuXi AppTec (Hong Kong) Limited according to their standard protocols. Briefly, stably transfected cells expressing the receptor of interest were grown and plated in a 384 well plate and incubated at 37° C. and 5% CO2 overnight. A solution of 250 mM probenecid in 1 mL FLIPR assay buffer was prepared fresh. This was combined with a fluorescent dye (Fluo-4 Direct™) to make a final assay concentration of 2.5 mM. Compounds were diluted 1:3.16 for 10 points and 750 nL was added to a 384 well compound plate using ECHO along with 30 μL assay buffer. The fluorescent dye was then added to the assay plate along with assay buffer to a final volume of 40 μL. The cell plate was incubated for 50 min at 37° C. and 5% CO2 and placed into the FLIPR Tetra along with the compound plate. 10 μL of references and compounds were then transferred from the compound plate into the cell plate and the fluorescent signal was read.

[3] = Metabolic stability in human liver microsomes (HLM); type: in vitro ADME; conditions: for t1/2: 1 μM, 0.50 mg protein per mL; for microsomal CLint at 1 μM: both sexes, human, pooled human liver microsomes, pH 7.4, 0.50 mg protein per mL
From the text: HLM Stability. Pooled HLM from adult male and female donors (Corning 452117) were used.

[4] = Metabolic stability in mouse liver microsomes (MLM); type: in vitro ADME; conditions: 0.50 mg protein per mL; for t1/2: MLM (CD-1), 1 μM; for microsomal CLint at 1 μM: mouse, pooled mouse liver microsomes, pH 7.4, MLM (CD-1)
From the text: MLM Stability Pooled MLM from CD-1 mice (BIOIVT M00501) were used.

[5] = Metabolic stability in rat liver microsomes (RLM); conditions: for t1/2: RLM, 0.50 mg protein per mL; for microsomal CLint at 1 μM: both, rat, pooled rat liver microsomes, pH 7.4
5-HT2A receptor [6] = biological target: T1, 5-HT2A receptor; experiment: PathHunter beta-arrestin recruitment assay at 5-HT2A; type: cell-based; conditions: 5-HT2A beta-arrestin
Procedure: The degree of arrestin bias varied substantially across the other compounds tested as well.
Arrestin Functional Assay at 5-HT2A. Recruitment of beta-arrestin was determined using a PathHunter assay at Eurofins DiscoverX (Fremont, Calif.) according to their standard protocols. PathHunter GPCR beta-arrestin assays take advantage of DiscoverX's proprietary Enzyme Fragment Complementation technology. The GPCR is fused in frame with a small enzyme donor fragment ProLink™ (PK) and co-expressed in cells stably expressing a fusion protein of beta-arrestin and the larger, N-terminal deletion mutant of beta-galactosidase. Activation of the GPCR (5-HT2A receptor in this case) stimulates binding of beta-arrestin to the PK-tagged GPCR and forces complementation of the two enzyme fragments, resulting in the formation of an active beta-galactosidase enzyme. This interaction leads to an increase in enzyme activity that can be measured using chemiluminescent PathHunter Detection Reagents. Briefly, PathHunter cells expressing 5-HT2A receptors were seeded in a volume of 20 μL into 384-well plates and incubated at 37° C. for the appropriate time prior to testing. […] Plates were then imaged on a microplate reader and the agonist activity was calculated using the following formula: % Activity=100%×(mean RLU of test sample−mean RLU of vehicle control)/(mean MAX control ligand−mean RLU of vehicle control), where RLU=relative light units.

D1 receptor = D1 receptor (Homo sapiens, UniProt P21728); experiment: FLIPR Ca^2+ flux agonist assay at D1; type: cell-based
Sequence of D1 receptor (P21728 whole entry): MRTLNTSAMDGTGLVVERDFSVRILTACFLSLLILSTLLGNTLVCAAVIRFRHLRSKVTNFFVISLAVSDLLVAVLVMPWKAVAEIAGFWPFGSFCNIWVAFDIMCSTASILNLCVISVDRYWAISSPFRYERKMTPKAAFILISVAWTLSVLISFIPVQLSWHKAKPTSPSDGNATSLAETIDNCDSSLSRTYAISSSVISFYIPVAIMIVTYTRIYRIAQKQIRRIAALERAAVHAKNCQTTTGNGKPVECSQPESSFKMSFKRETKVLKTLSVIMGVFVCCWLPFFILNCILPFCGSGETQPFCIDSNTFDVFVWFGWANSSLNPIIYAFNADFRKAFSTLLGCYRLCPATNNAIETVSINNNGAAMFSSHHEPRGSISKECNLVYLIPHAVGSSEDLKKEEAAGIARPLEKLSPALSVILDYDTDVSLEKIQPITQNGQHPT
Procedure: as §1, with “Compounds were diluted 1:3.16 for 10 points and 750 nL was added to a 384 well compound plate using ECHO along with 30 μL assay buffer.” left out

D2 receptor = D2 receptor (Homo sapiens, UniProt P14416); experiment: FLIPR Ca^2+ flux agonist assay at D2; type: cell-based
Sequence of D2 receptor (P14416 whole entry): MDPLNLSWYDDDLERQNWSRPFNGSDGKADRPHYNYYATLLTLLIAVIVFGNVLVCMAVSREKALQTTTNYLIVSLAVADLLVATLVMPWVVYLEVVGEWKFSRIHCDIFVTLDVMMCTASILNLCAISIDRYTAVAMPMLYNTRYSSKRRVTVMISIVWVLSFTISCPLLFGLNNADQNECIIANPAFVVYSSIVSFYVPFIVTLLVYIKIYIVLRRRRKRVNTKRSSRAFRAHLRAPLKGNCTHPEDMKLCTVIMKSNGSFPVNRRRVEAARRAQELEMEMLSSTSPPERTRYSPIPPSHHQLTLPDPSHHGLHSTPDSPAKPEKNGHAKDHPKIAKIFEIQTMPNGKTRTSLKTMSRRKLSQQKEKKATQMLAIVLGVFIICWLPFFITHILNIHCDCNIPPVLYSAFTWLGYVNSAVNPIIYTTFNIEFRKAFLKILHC
Procedure: as §1, with “Compounds were diluted 1:3.16 for 10 points and 750 nL was added to a 384 well compound plate using ECHO along with 30 μL assay buffer.” left out

T1 sequence (P28223 whole entry): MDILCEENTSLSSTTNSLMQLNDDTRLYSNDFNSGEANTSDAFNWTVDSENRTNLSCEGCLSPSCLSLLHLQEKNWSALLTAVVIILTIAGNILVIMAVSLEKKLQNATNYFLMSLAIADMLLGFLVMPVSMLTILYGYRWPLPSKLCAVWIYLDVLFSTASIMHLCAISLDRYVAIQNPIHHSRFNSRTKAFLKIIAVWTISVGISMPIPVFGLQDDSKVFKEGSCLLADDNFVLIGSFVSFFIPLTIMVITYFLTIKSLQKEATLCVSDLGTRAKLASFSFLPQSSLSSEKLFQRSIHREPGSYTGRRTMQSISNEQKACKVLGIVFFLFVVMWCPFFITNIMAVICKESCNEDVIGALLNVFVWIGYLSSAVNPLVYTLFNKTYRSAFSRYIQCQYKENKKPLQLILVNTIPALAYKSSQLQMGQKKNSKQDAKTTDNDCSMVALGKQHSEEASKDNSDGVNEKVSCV

Structure (SMILES) | Ki (5-HT2A receptor [1]) [nM] | EC50 (5-HT2A receptor [2]) [nM] | EC50 (5-HT1A receptor) [nM] | EC50 (5-HT2B receptor) [nM] | EC50 (5-HT1B receptor) [nM] | EC50 (Alpha1A receptor) [nM] | t1/2 [3] [min] | microsomal CLint at 1 μM [3] [µL/min/mg] | t1/2 [4] [min] | microsomal CLint at 1 μM [4] [µL/min/mg] | t1/2 [5] [min] | microsomal CLint at 1 μM [5] [µL/min/mg] | Emax (5-HT2A receptor [6]) [%] | agonist type in arrestin recruitment assay (in words) (5-HT2A receptor [6]) | EC50 (D1 receptor) [nM] | EC50 (D2 receptor) [nM]
CCN(CC)C(=O)[C@@H]1C=C2c3cccc4[nH]cc(c34)C[C@H]2N(CC2CC2)C1 [Compound 13, (6aR,9R)—N,N-diethyl-7-(cyclopropylmethyl)-4,6,6a,7,8,9-hexahydroindolo[4,3-fg]quinoline-9-carboxamide] | 2.23 | 25.9 | 15.3 | 182 | 98.6 | 44.6 | 21.1 | 65.7 | 3.7 | 376 | 27.7 | 50 | – | – | – | –
CCN(CC)C(=O)[C@@H]1C=C2c3cccc4[nH]cc(c34)C[C@H]2N(CCC(F)(F)F)C1 [Compound 12, (6aR,9R)—N,N-diethyl-7-(3,3,3-trifluoropropyl)-4,6,6a,7,8,9-hexahydroindolo[4,3-fg]quinoline-9-carboxamide] | 5.61 | 52.9 | 2140 | 154 | 194 | > 3160 | 13.5 | 103 | 2.1 | 655 | 5.9 | 236 | – | – | – | –
CCN(CC)C(=O)[C@@H]1C=C2c3cccc4[nH]cc(c34)C[C@H]2N(C)C1 [LSD, lysergic acid diethylamide, reference compound] | – | – | – | – | 2.06 | 91.1 | 71.6 | 19.4 | 31.3 | 44.2 | 60.2 | 23 | < 60 | partial agonists | 4.87 | 4.93
